Data reported in PubChem BioAssay (NCI).
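Where inhibition never reached the appropriate level, the endpoint shown equals the highest concentration tested. Otherwise, values were interpolated linearly from a five-concentration, 48-hour dose response in 96-well plates. Definition used: TGI = concentration required for complete inhibition of growth.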

Assays:
Test in all cases: NCI anticancer screen, dose series, 48 h
[1] = tested on: K-562 leukemia
[2] = tested on: SN12C renal
[3] = tested on: SF-539 CNS
[4] = tested on: OVCAR-5 ovarian
[5] = tested on: SW-620 colon
[6] = tested on: HT29 colon
[7] = tested on: COLO 205 colon
[8] = tested on: MDA-MB-231 breast
[9] = tested on: SNB-75 CNS
[10] = tested on: SK-MEL-5 melanoma
[11] = tested on: HOP-62 NSCLC
[12] = tested on: PC-3 prostate
[13] = tested on: MOLT-4 leukemia
[14] = tested on: SF-295 CNS
[15] = tested on: DU-145 prostate
[16] = tested on: UO-31 renal
[17] = tested on: ACHN renal
[18] = tested on: SR leukemia
[19] = tested on: A498 renal
[20] = tested on: UACC-62 melanoma
[21] = tested on: HCT-15 colon
[22] = tested on: 786-0 renal
[23] = tested on: NCI-H23 lung
[24] = tested on: SK-OV-3 ovarian
[25] = tested on: OVCAR-4 ovarian
[26] = tested on: HCT-116 colon
[27] = tested on: SF-268 CNS
[28] = tested on: SNB-19 CNS
[29] = tested on: SK-MEL-28 melanoma
[30] = tested on: MDA-MB-435
[31] = tested on: BT-549 breast
[32] = tested on: LOX IMVI melanoma
[33] = tested on: MALME-3M melanoma
[34] = tested on: OVCAR-8 ovarian
[35] = tested on: M14 melanoma
[36] = tested on: A549 NSCLC
[37] = tested on: T-47D breast
[38] = tested on: U251 CNS
[39] = tested on: NCI-H226 lung
[40] = tested on: IGROV1 ovarian
[41] = tested on: NCI-H460 lung
[42] = tested on: HCC-2998 colon
[43] = tested on: MCF7 breast
[44] = tested on: CAKI-1 renal
[45] = tested on: NCI-H522 lung
[46] = tested on: RXF 393 renal
[47] = tested on: SK-MEL-2 melanoma
[48] = tested on: NCI/ADR-RES ovarian
[49] = tested on: UACC-257 melanoma
[50] = tested on: RPMI-8226 leukemia
[51] = tested on: TK-10 renal
[52] = tested on: CCRF-CEM leukemia
[53] = tested on: EKVX NSCLC
[54] = tested on: HL-60(TB) leukemia
[55] = tested on: KM12 colon
[56] = tested on: OVCAR-3 ovarian
[57] = tested on: HOP-92 NSCLC

SMILES: N#Cc1c(-c2ccc([N+](=O)[O-])cc2)cc(-c2ccc(Nc3ccnc4cc(C(F)(F)F)ccc34)cc2)[nH]c1=O
- TGI [1]: > 100 µM
- TGI [2]: > 100 µM
- TGI [3]: > 100 µM
- TGI [4]: 40.1 µM
- TGI [5]: > 100 µM
- TGI [6]: > 100 µM
- TGI [7]: 29.1 µM
- TGI [8]: 44.7 µM
- TGI [9]: > 100 µM
- TGI [10]: > 100 µM
- TGI [11]: > 100 µM
- TGI [12]: > 100 µM
- TGI [13]: > 100 µM
- TGI [14]: > 100 µM
- TGI [15]: > 100 µM
- TGI [16]: > 100 µM
- TGI [17]: > 100 µM
- TGI [18]: > 100 µM
- TGI [19]: > 100 µM
- TGI [20]: > 100 µM
- TGI [21]: > 100 µM
- TGI [22]: > 100 µM
- TGI [23]: > 100 µM
- TGI [24]: > 100 µM
- TGI [25]: > 100 µM
- TGI [26]: 66.1 µM
- TGI [27]: > 100 µM
- TGI [28]: 82.7 µM
- TGI [29]: > 100 µM
- TGI [30]: > 100 µM
- TGI [31]: > 100 µM
- TGI [32]: > 100 µM
- TGI [33]: > 100 µM
- TGI [34]: > 100 µM
- TGI [35]: > 100 µM
- TGI [36]: > 100 µM
- TGI [37]: > 100 µM
- TGI [38]: 21.9 µM
- TGI [39]: > 100 µM
- TGI [40]: > 100 µM
- TGI [41]: > 100 µM
- TGI [42]: > 100 µM
- TGI [43]: > 100 µM
- TGI [44]: > 100 µM
- TGI [45]: > 100 µM
- TGI [46]: > 100 µM
- TGI [47]: > 100 µM
- TGI [48]: > 100 µM
- TGI [49]: > 100 µM
- TGI [50]: > 100 µM
- TGI [51]: > 100 µM
- TGI [52]: > 100 µM
- TGI [53]: > 100 µM

SMILES: COc1ccc(C23OCC(Cc4cc(OC)c(OC)cc42)C3COC(C)=O)cc1OC (stereo not given)
- TGI [1]: > 100 µM
- TGI [3]: > 100 µM
- TGI [4]: > 100 µM
- TGI [5]: > 100 µM
- TGI [6]: > 100 µM
- TGI [7]: > 100 µM
- TGI [8]: > 100 µM
- TGI [9]: > 100 µM
- TGI [10]: > 100 µM
- TGI [11]: > 100 µM
- TGI [12]: > 100 µM
- TGI [13]: > 100 µM
- TGI [14]: > 100 µM
- TGI [15]: > 100 µM
- TGI [16]: > 100 µM
- TGI [17]: > 100 µM
- TGI [18]: > 100 µM
- TGI [19]: > 100 µM
- TGI [54]: > 100 µM
- TGI [20]: > 100 µM
- TGI [21]: > 100 µM
- TGI [55]: > 100 µM
- TGI [22]: > 100 µM
- TGI [23]: > 100 µM
- TGI [24]: > 100 µM
- TGI [25]: > 100 µM
- TGI [26]: > 100 µM
- TGI [27]: > 100 µM
- TGI [28]: > 100 µM
- TGI [29]: > 100 µM
- TGI [30]: > 100 µM
- TGI [31]: > 100 µM
- TGI [32]: > 100 µM
- TGI [33]: > 100 µM
- TGI [35]: > 100 µM
- TGI [36]: > 100 µM
- TGI [37]: > 100 µM
- TGI [38]: > 100 µM
- TGI [39]: > 100 µM
- TGI [56]: > 100 µM
- TGI [41]: > 100 µM
- TGI [42]: > 100 µM
- TGI [43]: > 100 µM
- TGI [44]: > 100 µM
- TGI [45]: > 100 µM
- TGI [46]: > 100 µM
- TGI [47]: > 100 µM
- TGI [57]: > 100 µM
- TGI [48]: > 100 µM
- TGI [50]: > 100 µM
- TGI [51]: > 100 µM
- TGI [53]: > 100 µM
